Laboratory results taken from PubChem BioAssay (NCI).
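Five concentrations, 48 hours, 96-well plates. Definition used: TGI = concentration required for complete inhibition of growth.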

Legend:
Experiment in all cases: NCI anticancer screen, dose series, 48 h
HOP-92 NSCLC = tested on: HOP-92 NSCLC
NCI/ADR-RES ovarian = tested on: NCI/ADR-RES ovarian
T-47D breast = tested on: T-47D breast
NCI-H23 lung = tested on: NCI-H23 lung
MCF7 breast = tested on: MCF7 breast
HOP-62 NSCLC = tested on: HOP-62 NSCLC
CCRF-CEM leukemia = tested on: CCRF-CEM leukemia
HT29 colon = tested on: HT29 colon
U251 CNS = tested on: U251 CNS
OVCAR-5 ovarian = tested on: OVCAR-5 ovarian
COLO 205 colon = tested on: COLO 205 colon
HL-60(TB) leukemia = tested on: HL-60(TB) leukemia
OVCAR-8 ovarian = tested on: OVCAR-8 ovarian
786-0 renal = tested on: 786-0 renal
RPMI-8226 leukemia = tested on: RPMI-8226 leukemia
MOLT-4 leukemia = tested on: MOLT-4 leukemia
HCT-15 colon = tested on: HCT-15 colon
SK-MEL-28 melanoma = tested on: SK-MEL-28 melanoma
SNB-19 CNS = tested on: SNB-19 CNS
HCC-2998 colon = tested on: HCC-2998 colon
KM12 colon = tested on: KM12 colon
SNB-75 CNS = tested on: SNB-75 CNS
CAKI-1 renal = tested on: CAKI-1 renal
TK-10 renal = tested on: TK-10 renal
EKVX NSCLC = tested on: EKVX NSCLC
A498 renal = tested on: A498 renal
HCT-116 colon = tested on: HCT-116 colon
BT-549 breast = tested on: BT-549 breast
MDA-MB-231 breast = tested on: MDA-MB-231 breast
MALME-3M melanoma = tested on: MALME-3M melanoma
RXF 393 renal = tested on: RXF 393 renal
UACC-62 melanoma = tested on: UACC-62 melanoma
IGROV1 ovarian = tested on: IGROV1 ovarian
UO-31 renal = tested on: UO-31 renal
OVCAR-4 ovarian = tested on: OVCAR-4 ovarian
UACC-257 melanoma = tested on: UACC-257 melanoma
SN12C renal = tested on: SN12C renal
SK-MEL-2 melanoma = tested on: SK-MEL-2 melanoma
SR leukemia = tested on: SR leukemia
MDA-MB-435 = tested on: MDA-MB-435
NCI-H226 lung = tested on: NCI-H226 lung
ACHN renal = tested on: ACHN renal
HS 578T breast = tested on: HS 578T breast
SW-620 colon = tested on: SW-620 colon
PC-3 prostate = tested on: PC-3 prostate
A549 NSCLC = tested on: A549 NSCLC
SF-539 CNS = tested on: SF-539 CNS
LOX IMVI melanoma = tested on: LOX IMVI melanoma
DU-145 prostate = tested on: DU-145 prostate
SF-295 CNS = tested on: SF-295 CNS
M14 melanoma = tested on: M14 melanoma
SK-OV-3 ovarian = tested on: SK-OV-3 ovarian
MDA-N = tested on: MDA-N
SF-268 CNS = tested on: SF-268 CNS
NCI-H460 lung = tested on: NCI-H460 lung
OVCAR-3 ovarian = tested on: OVCAR-3 ovarian
SK-MEL-5 melanoma = tested on: SK-MEL-5 melanoma
NCI-H522 lung = tested on: NCI-H522 lung
K-562 leukemia = tested on: K-562 leukemia

Cc1c(Cl)cc(C(C)(C)C)c(O)c1Cc1c(C)c(Cl)cc(C(C)(C)C)c1O
TGI (HOP-92 NSCLC): 1.18 µM
TGI (NCI/ADR-RES ovarian): 9.24 µM
TGI (T-47D breast): 13.1 µM
TGI (NCI-H23 lung): 5.13 µM
TGI (MCF7 breast): 7.28 µM
TGI (HOP-62 NSCLC): 9.87 µM
TGI (CCRF-CEM leukemia): 1.54 µM
TGI (HT29 colon): 6.36 µM
TGI (U251 CNS): 7.97 µM
TGI (OVCAR-5 ovarian): 14 µM
TGI (COLO 205 colon): 2.48 µM
TGI (HL-60(TB) leukemia): 3.45 µM
TGI (OVCAR-8 ovarian): 5.51 µM
TGI (786-0 renal): 4.57 µM
TGI (RPMI-8226 leukemia): 0.707 µM
TGI (MOLT-4 leukemia): 3.34 µM
TGI (HCT-15 colon): 13.6 µM
TGI (SK-MEL-28 melanoma): 12.3 µM
TGI (SNB-19 CNS): 12.5 µM
TGI (HCC-2998 colon): 3.33 µM
TGI (KM12 colon): 5.76 µM
TGI (SNB-75 CNS): 5.78 µM
TGI (CAKI-1 renal): 7.51 µM
TGI (TK-10 renal): 10 µM
TGI (EKVX NSCLC): 6.41 µM
TGI (A498 renal): 3.84 µM
TGI (HCT-116 colon): 3.47 µM
TGI (BT-549 breast): 9.79 µM
TGI (MDA-MB-231 breast): 3.49 µM
TGI (MALME-3M melanoma): 1.94 µM
TGI (RXF 393 renal): 2.44 µM
TGI (UACC-62 melanoma): 7 µM
TGI (IGROV1 ovarian): 5.53 µM
TGI (UO-31 renal): 4.46 µM
TGI (OVCAR-4 ovarian): 10.3 µM
TGI (UACC-257 melanoma): 6.29 µM
TGI (SN12C renal): 9.02 µM
TGI (SK-MEL-2 melanoma): 3.9 µM
TGI (SR leukemia): 5.58 µM
TGI (MDA-MB-435): 5.62 µM
TGI (NCI-H226 lung): 6.03 µM
TGI (ACHN renal): 7.64 µM
TGI (HS 578T breast): 3.61 µM
TGI (SW-620 colon): 6.45 µM
TGI (PC-3 prostate): 9.93 µM
TGI (A549 NSCLC): 5.88 µM
TGI (SF-539 CNS): 4.24 µM
TGI (LOX IMVI melanoma): 3.19 µM
TGI (DU-145 prostate): 11.8 µM
TGI (SF-295 CNS): 7.54 µM
TGI (M14 melanoma): 7.85 µM
TGI (SK-OV-3 ovarian): 10 µM
TGI (MDA-N): 8.71 µM
TGI (SF-268 CNS): 6.89 µM
TGI (NCI-H460 lung): 5.03 µM
TGI (OVCAR-3 ovarian): 2.22 µM
TGI (SK-MEL-5 melanoma): 2.29 µM
TGI (NCI-H522 lung): 1.18 µM
TGI (K-562 leukemia): 5.1 µM

O=C1CSC(c2cccc(Oc3ccccc3)c2)N1c1cc(Cl)ccc1Cl (stereo unspecified)
TGI (HOP-92 NSCLC): 42.7 µM
TGI (NCI/ADR-RES ovarian): 77.4 µM
TGI (T-47D breast): 89.6 µM
TGI (NCI-H23 lung): 98.2 µM
TGI (MCF7 breast): 23 µM
TGI (HOP-62 NSCLC): 47.1 µM
TGI (CCRF-CEM leukemia): > 100 µM
TGI (HT29 colon): 50.5 µM
TGI (U251 CNS): 33.2 µM
TGI (OVCAR-5 ovarian): 76.9 µM
TGI (COLO 205 colon): 90.8 µM
TGI (HL-60(TB) leukemia): > 100 µM
TGI (OVCAR-8 ovarian): 62.5 µM
TGI (786-0 renal): 36.9 µM
TGI (MOLT-4 leukemia): 57.8 µM
TGI (HCT-15 colon): 58.6 µM
TGI (SK-MEL-28 melanoma): > 100 µM
TGI (SNB-19 CNS): 56.6 µM
TGI (HCC-2998 colon): 28.6 µM
TGI (KM12 colon): 79.2 µM
TGI (SNB-75 CNS): 62.6 µM
TGI (CAKI-1 renal): 48.8 µM
TGI (TK-10 renal): 55.1 µM
TGI (EKVX NSCLC): 80.9 µM
TGI (A498 renal): 70.7 µM
TGI (HCT-116 colon): 34.4 µM
TGI (BT-549 breast): 35.6 µM
TGI (MDA-MB-231 breast): 43.3 µM
TGI (MALME-3M melanoma): 57.6 µM
TGI (RXF 393 renal): 40.3 µM
TGI (UACC-62 melanoma): 31.5 µM
TGI (UO-31 renal): 43.3 µM
TGI (OVCAR-4 ovarian): 60.8 µM
TGI (UACC-257 melanoma): 50.1 µM
TGI (SN12C renal): 39.1 µM
TGI (SK-MEL-2 melanoma): 36.3 µM
TGI (SR leukemia): 44 µM
TGI (MDA-MB-435): 40.2 µM
TGI (NCI-H226 lung): 46.7 µM
TGI (ACHN renal): 49.1 µM
TGI (HS 578T breast): 77.7 µM
TGI (SW-620 colon): 70.5 µM
TGI (PC-3 prostate): 52.5 µM
TGI (A549 NSCLC): > 100 µM
TGI (SF-539 CNS): 35.6 µM
TGI (LOX IMVI melanoma): 43.1 µM
TGI (DU-145 prostate): > 100 µM
TGI (SF-295 CNS): 55.3 µM
TGI (M14 melanoma): 50.5 µM
TGI (SK-OV-3 ovarian): > 100 µM
TGI (MDA-N): 35.7 µM
TGI (SF-268 CNS): 39.5 µM
TGI (NCI-H460 lung): 43.2 µM
TGI (OVCAR-3 ovarian): 51.2 µM
TGI (SK-MEL-5 melanoma): 31.3 µM
TGI (NCI-H522 lung): 41.1 µM
TGI (K-562 leukemia): 50.1 µM
